# US11046700B2, “Substituted imidazo[1,2-a]pyrazines, pyrazolo[1,5-c]pyrimidines, pyrazolo[1,5-a]pyridines, and purines for the treatment of schistosomiasis” (Merck Patent GmbH, priority 2017, dated 2021)
# pIC50: −log10 of the molar value.
# How the values were obtained:
# [1] = test system: S. mansoni adult worms; experiment: In vitro assay, S. mansoni adult worms; assay type: cell-based; conditions: Schistosoma mansoni; S. mansoni adult worms, in vitro; read-out: (a) Adult
# [2] = test system: S. mansoni juvenile worms; experiment: In vitro assay, S. mansoni juvenile worms; assay type: cell-based; conditions: Schistosoma mansoni; S. mansoni juvenile worms, in vitro; read-out: (b) Juvenile
# [3] = test system: S. haemotobium adult worms; experiment: In vitro assay, S. haemotobium adult worms; assay type: cell-based; conditions: read-out: (c) S. haemotobium
# Description: (§1) The routine biological assays using adult or juvenile worms and cytotoxicity assays using MRC-5 cells have been disclosed previously in Mansour, N. R., et al. (2016). “High Throughput Screening Identifies Novel Lead Compounds with Activity against Larval, Juvenile and Schistosoma mansoni PLoS Negl Trap Dis 10(4): e0004659. Cytotoxicity assays using the HepG2 cell line were carried out as described in Molecular Diversity (2015) 19, 251-261.
# (c) S. haemotobium adult worms
# [4] = test system: HepG2 cell line; experiment: Cytotoxicity against human HepG2 cell lines; assay type: cell-based
# [5] = test system: S. mansoni adult worms; experiment: Mouse infection model, adult worms, oral treatment day 42 post infection, worm recovery; assay type: in vivo, Schistosoma mansoni; conditions: mice
# Description: (§2) Methods for the subcutaneous infection of mice and subsequent worm recovery were as described in Mansour et al (2016) except that infection was with 150 cercariae and the perfusion medium was citrate saline (0.9% sodium chloride, 1.5% tri-sodium citrate). Perfusion was carried out 8 days (adult infections) or 15 days (juvenile infections) after treatment. Perfuseate was collected into 30 mL universal tubes. RBC (Red Blood Cells) were removed by allowing the perfuseate to settle for 10 min, removal of most of the supernatant and washing once as above with 10 mL perfusion medium. A drop of dilute aqueous saponin solution was added to lyse any remaining RBC and the worm suspension poured into a grid-marked small petri dish. The tube was rinsed out into the petri dish and examined for any remaining worms. Worms were counted using a dissecting microscope. The mouse livers removed after perfusion were squashed between two thick glass plates and examined visually and any remaining worms added to those counted as above.
# (§3) For testing efficacy against the juvenile worms, treatment was on day 25 post infection and for testing against the adult worms on day 42 post infection. Drugs were suspended in 7% Tween-80/3% Ethanol/double distilled water and drug dispersal was facilitated by vortexing and using a sonicating water bath (Formulation F1). Alternatively, drugs were suspended in 10% DMSO, 90% double distilled water containing 50 mM Na2HPO4 with 0.5% Tween-80 by first dissolving or suspending the drug in DMSO then adding the DMSO solution/suspension to the aqueous solution (Formulation F2). In a further set of conditions, drugs were first dissolved in DMSO, then diluted with corn oil to give a 5% DMSO+drug solution/suspension (Formulation F3)
# (§4) The drug solution/suspensions were given by oral gavage at the rate of 10 ml/kg. Positive controls (artemether for juvenile worms and praziquantel for adult worms) were used in each experiment.
# [6] = test system: S. mansoni juvenile worms; experiment: Mouse infection model, juvenile worms, oral treatment day 25 post infection, worm recovery; assay type: in vivo, Schistosoma mansoni; conditions: mice
# Description: as §2, §3, §4
# [7] = test system: MRC-5 cells; experiment: Cytotoxicity against human MRC-5 cell line; assay type: cell-based
# Description: as §1
# (d) Cytotoxicity against human MRC-5 cell line
# [8] = oral 6.25 mg/kg, Formulation F1, negative control 33.8 ± 4.1
# [9] = oral 12.5 mg/kg, Formulation F1, negative control 33.8 ± 4.1
# [10] = oral 6.25 mg/kg, Formulation F3, negative control 32.6 ± 10.6
# [11] = oral 25 mg/kg, Formulation F1, negative control 33.2 ± 9.09
# [12] = oral 200 mg/kg, Formulation F1, negative control 38.8 ± 5.4
SMILES,pIC50 [1],pIC50 [2],pIC50 [3],(e) Cytotox HepG2 [4] [µM],(d) Cytotox MRC-5 [7] [µM],other results
"Cc1nc2cnc(-c3ccc(F)c(C(F)(F)F)c3)cn2c1-c1c(F)cc(O)cc1F [Example 16, 3,5-difluoro-4-[2-methyl-6-[4-fluoro-3-(trifluoromethyl)phenyl]imidazo[1,2-a]pyrazin-3-yl]phenol]",6.92,6.66,7.40,7.6,–,–
"Fc1ccc(-c2cn3c(-c4ccc5[nH]ncc5c4F)c(C(F)(F)F)nc3cn2)cc1C(F)(F)F [Example 50, 3-(4-Fluoro-1H-indazol-5-yl)-6-(4-fluoro-3-trifluoromethylphenyl)-2-trifluoromethyl-imidazo[1,2-a]pyrazine]",–,7.22,–,–,–,"Mean worm recovery [5, 8]: 7.4 ± 8.1; Percent worm reduction [5, 8]: 78%; Mean worm recovery [5, 9]: 0.2; Percent worm reduction [5, 9]: 99%; Mean worm recovery [6, 10]: 17.6 ± 12.0; Percent worm reduction [6, 10]: 46%; Mean worm recovery [6, 11]: 0.8 ± 0.84; Percent worm reduction [6, 11]: 98%"
"Fc1ccc(-c2cn3c(-c4ccc5[nH]ncc5c4F)c(C(F)(F)F)nc3cn2)cc1C(F)(F)C(F)(F)F [Example 63, 3-(4-Fluoro-1H-indazol-5-yl)-6-(4-fluoro-3-pentafluoroethyl-phenyl)-2-trifluoromethyl-imidazo[1,2-a]pyrazine]",7.96,8.00,> 8.22,11.7,–,"Mean worm recovery [6, 10]: 0.6 ± 1.0; Percent worm reduction [6, 10]: 98%"
"CCc1nc2cnc(-c3cccc(C(F)(F)F)c3)cn2c1-c1ccc(O)cc1F [Example 8, 3-fluoro-4-[2-ethyl-6-[3-(trifluoromethyl)phenyl]imidazo[1,2-a]pyrazin-3-yl]phenol]",7.00,7.07,> 5.81,18.7,17.3,–
"CCc1nc2cnc(-c3cccc(C(F)(F)F)c3)cn2c1-c1ccc(OC)c(O)c1 [Example 7, 2-methoxy-5-[2-ethyl-6-[3-(trifluoromethyl)phenyl]imidazo[1,2-a]pyrazin-3-yl]phenol]",7.05,7.09,–,>30,>50,–
"CC(C)c1nc2cnc(-c3cccc(C(F)(F)F)c3)cn2c1-c1ccc(O)cc1F [Example 9, 3-fluoro-4-[2-(propan-2-yl)-6-[3-(trifluoromethyl)phenyl]imidazo[1,2-a]pyrazin-3-yl]phenol]",7.12,7.10,–,9,13.7,–
"Cc1nc2cnc(-c3cccc(C(F)(F)F)c3)cn2c1-c1ccc(O)cc1F [Example 6, 3-fluoro-4-[2-methyl-6-[3-(trifluoromethyl)phenyl]imidazo[1,2-a]pyrazin-3-yl]phenol]",6.54,6.32,–,–,15.8,–
"COc1ccc(-c2c(C(C)C)nc3cnc(-c4cccc(C(F)(F)F)c4)cn23)cc1O [Example 1, 2-methoxy-5-[2-(propan-2-yl)-6-[3-(trifluoromethyl)phenyl]imidazo[1,2-a]pyrazin-3-yl]phenol]",7.24,7.89,> 6.71,>11.1,21.8,–
"CC(C)c1nc2cnc(-c3ccc(F)c(C(F)(F)F)c3)cn2c1-c1c(F)cc(O)cc1F [Example 17, 3,5-difluoro-4-[2-(propan-2-yl)-6-[4-fluoro-3-(trifluoromethyl)phenyl]imidazo[1,2-a]pyrazin-3-yl]phenol]",7.36,7.59,7.64,7.1,–,"Mean worm recovery [5, 12]: 0.3 ± 0.8; Percent worm reduction [5, 12]: 99%; Mean worm recovery ([6]; oral 50 mg/kg, Formulation F1, negative control 33.0 ± 7.2): 20.6 ± 8.5; Mean worm recovery ([6]; oral 200 mg/kg, Formulation F1, negative control 33.0 ± 7.2): 5.2 ± 3.1"
"COc1cc(-c2c(C(C)C)nc3cnc(-c4cccc(C(F)(F)F)c4)cn23)cc2cn[nH]c12 [Example 22, 7-methoxy-5-{2-(propan-2-yl)-6-[3-trifluoromethylphenyl]imidazo[1,2-a]pyrazin-3-yl}-1H-indazole]",6.37,6.28,6.82,–,–,–
"Cc1nc2cnc(-c3ccc(F)c(C(F)(F)F)c3)cn2c1-c1ccc(O)cc1F [Example 10, 3-fluoro-4-[2-methyl-6-[4-fluoro-3-(trifluoromethyl)phenyl]imidazo[1,2-a]pyrazin-3-yl]phenol]",> 6.11,6.28,–,>11.1,14.4,–
